Patent publication US9585867B2, “Cannabinod formulation for the sedation of a human or animal” (priority 2015, dated 2017)
Read-outs that look alike come from different tables or passages of the source.

What was measured:
dogs = settings: cited from earlier work
laboratory animals = settings: cited from earlier work
monkeys [1] = settings: cited from earlier work
rats = settings: cited from earlier work
mice = settings: cited from earlier work
monkey = settings: cited from earlier work
dog = settings: cited from earlier work
monkeys [2] = settings: cited from earlier work; remark: listed apart in the source
monkeys [3] = assay: Repeated intravenous study with emulsified tetrahydrocannabinol in monkeys; format: in vivo; settings: near-pure tetrahydrocannabinol
Protocol: Subsequently, intravenous studies were repeated using tetrahydrocannabinol emulsified in a sesame oil, polysorbate 80, or saline vehicles at 15 mg/ml or 40 mg/ml. The emulsions were administered at a uniform rate of 2 ml/15 sec. Doses administered were 1, 4, 16, 64, 92, 128, 192 and 256 mg/kg. All monkeys injected with 92 mg/kg or less survived and completely recovered from all effects within two to four days. An analogous intravenous dosage for a 100 kg human would be 9,200 mg (9.2 g) of near-pure tetrahydrocannabinol. All monkeys injected with 128 mg/kg or more succumb within thirty minutes for all but one subject, which took one-hundred-and-eighty minutes to expire. An analogous lethal intravenous dosage for a 100 kg human would be 12,800 mg (12.8 g) of near-pure tetrahydrocannabinol.
Histopathological changes found in the lungs of the deceased monkeys were like those described after the previous intravenous experiment. […] Behavioral changes preceding death were salivation, prostration, coma, and tremors.
Behavioral and physiological changes described clinically in the surviving monkeys followed a consistent developmental sequence and were roughly dose related in severity and duration. Onset was fifteen minutes following injection and duration was up to forty-eight hours. Huddled posture and lethargy were the most persistent changes. Constipation, anorexia, and weight loss were noted. […]

[4] = Inventor experimentation: intermuscular injection of tetrahydrocannabinol, incapacitation; format: in vivo, human; settings: intermuscular injection of 5.0 mg; overall healthy, 100 kg person
Protocol: If it is unnecessary to “immediately”, or to “near-immediately”, incapacitate a recipient, the inventive formulation may strictly consist of cannabinoids such as tetrahydrocannabinol. During instant inventor experimentation, an intermuscular injection of 5.0 mg of tetrahydrocannabinol rendered an overall healthy, 100 kg person, fully incapacitated within 10-30 seconds, with its effects lasting approximately four-to-six hours.

cannabinoid receptor = settings: cited from earlier work
[5] = intravenous emulsion 15 or 40 mg/ml, 2 ml/15 sec

Which results are given for `CCCCCc1cc(O)c2c(c1)OC(C)(C)[C@@H]1CCC(C)=C[C@@H]21` [tetrahydrocannabinol]?
time to complete recovery of survivors (dogs; dogs that survived the intravenous injection): five to nine; minimal lethal intravenous dose (dogs; dogs, depending upon concentration): 25 to 99 mg/kg; time to lethality after intravenous injection (dogs; dogs, intravenous): within minutes; acute one dose LD50 (dogs; intravenous, dogs): 100 mg/kg; lowest intravenous dosage which causes death (laboratory animals; intravenous): approximately 1000 mg per kg of body weight; typical lethal oral dosage (laboratory animals; oral): 225-450 mg per kg of body weight; acute one dose LD50 (monkeys [1]; intravenous, monkeys, depending on concentration of the solution): 15.6 to 62.5 mg/kg; time to complete recovery of survivors (monkeys [1]; monkeys that survived the intravenous injection): five to nine; minimal lethal intravenous dose (monkeys [1]; monkeys, depending upon concentration): 3.9 to 15.5 mg/kg; time to lethality after intravenous injection (monkeys [1]; monkeys, intravenous): within minutes; LD50 dose (rats): 28.6 mg per 42.47 kg of body weight; time to lethality after intravenous injection (rats; intravenous): within minutes; LD50 dose (mice): 28.6 mg per 42.47 kg of body weight; nonlethal oral consumption (monkey): 3 g/kg; nonlethal oral consumption (dog): 3 g/kg; fatalities (monkeys [2]; 92 mg/kg intravenously, monkeys): no fatalities; time to death (monkeys [2]; 128 mg/kg or more, the one remaining subject): one-hundred-and-eighty; dose at which all monkeys succumb (monkeys [2]; [5]): ≥ 128 mg/kg; dose at which all monkeys survived (monkeys [2]; [5]): ≤ 92 mg/kg; time to complete recovery from all effects (monkeys [2]; monkeys injected with 92 mg/kg or less): two to four; time to death (monkeys [2]; monkeys injected with 128 mg/kg or more, all but one subject): thirty; time to severe respiratory depression and bradycardia after injection (monkeys [2]; monkeys that died): five; duration of behavioral and physiological changes (monkeys [2]; surviving monkeys): up to forty-eight; onset of behavioral and physiological changes following injection (monkeys [2]; surviving monkeys): fifteen; time of maximal hypothermia, bradycardia and decreased respiratory rate post injection (monkeys [2]; surviving monkeys): two-to-six; analogous intravenous dosage for a 100 kg human (survived dose) (monkeys [3]; extrapolated from 92 mg/kg in monkeys): 9,200 mg; analogous lethal intravenous dosage for a 100 kg human (monkeys [3]; extrapolated from 128 mg/kg in monkeys): 12,800 mg; duration of effects [4]: four-to-six; time to full incapacitation [4]: 10 to 30 s

Which “potency relative to phyto-cannabinoid THC” value (cannabinoid receptor) does the source give for `CCCCCCC(C)(C)c1cc(O)c2c(c1)OC(C)(C)[C@@H]1CC=C(CO)C[C@@H]21` [HU-210] here?
The value was “about 100 times”.

For `CCCCCCC(C)(C)c1ccc([C@@H]2C[C@H](O)CC[C@H]2CCCO)c(O)c1` [CP-55940], which “potency relative to phyto-cannabinoid THC” value (cannabinoid receptor) is on record?
Its value is “many times more potent”.
